Measurements taken from patent publication US9464071B2 (priority 2010, dated 2016).
Several values for one entry are separate records, joined by “and”; a condition that tells them apart may be missing. Equal entries are not always repeated. Structures can show the parent of a compound that is named as a salt.

Row | melting point | SMILES
1 | 224 °C | CNCC(O)CN(c1cc(OC)cc(OC)c1)c1ccc2ncc(-c3cnn(C)c3)nc2c1 (stereo not drawn) (as salt: HCl)
2 | 167 °C | COc1cc(OC)cc(N(CC#Cc2nccs2)c2ccc3ncc(-c4cnn(C)c4)nc3c2)c1
3 | 126.66 °C and 126 °C | COc1cc(OC)cc(N(C[C@@H]2C[C@H]2CO)c2ccc3ncc(-c4cnn(C)c4)nc3c2)c1 [Compound 89]
4 | 125 °C | COc1cc(O)cc(N(CCCO)c2ccc3ncc(-c4cn[nH]c4)nc3c2)c1
5 | 85 °C | COc1cccc(C#CCN(c2cc(OC)cc(OC)c2)c2ccc3ncc(-c4cnn(C)c4)nc3c2)c1
6 | 162 °C and 162.1 °C | COc1cc(OC)cc(N(CC(C)(C)O)c2ccc3ncc(-c4cnn(C)c4)nc3c2)c1 [Compound 78]
7 | 127 °C | [2H]C([2H])([2H])Oc1cc(OC([2H])([2H])[2H])cc(N(CCCNCC(F)(F)F)c2ccc3ncc(-c4cnn(C)c4)nc3c2)c1
8 | 151 °C | COc1cc(OC)cc(N(C[C@@H](O)C(F)(F)F)c2ccc3ncc(-c4cnn(CCCN)c4)nc3c2)c1 [Compound 660, 3-[{3-[1-(3-Aminopropyl)-1H-pyrazol-4-yl]quinoxalin-6-yl}(3,5-dimethoxyphenyl)amino]-1,1,1-trifluoropropan-2-ol]
9 | 241 °C | COc1cc(OC)cc(N(Cc2cc3ncccc3n2C)c2ccc3ncc(-c4cnn(C)c4)nc3c2)c1
10 | 126.47 °C | COc1cc(OC)cc(N(CCN2CC[C@H](C#N)C2)c2ccc3ncc(-c4cnn(C)c4)nc3c2)c1 [Compound 133, (3S)-1-(2-{(3,5-Dimethoxyphenyl)[3-(1-methyl-1H-pyrazol-4-yl)quinoxalin-6-yl]amino}ethyl)pyrrolidine-3-carbonitrile]
11 | 127 °C | COc1cc(OC)cc(N(Cc2nc(OC)cc(OC)n2)c2ccc3ncc(-c4cnn(C)c4)nc3c2)c1
12 | 156 °C | COC(=O)c1cccnc1C#CCN(c1cc(OC)cc(OC)c1)c1ccc2ncc(-c3cnn(C)c3)nc2c1
